Laboratory results as given in patent US20210315844A1, “ENDOXIFEN FOR THE TREATMENT OF BIPOLAR I DISORDER” (Jina Pharmaceuticals, Inc., priority 2020, published 2021).

Legend:
[1] = tested on: patient of bipolar I disorders; assay: Clinical study: C-SSRS score / risk of suicidal behavior in patients treated with endoxifen enteric coated tablet; assay type: in vivo, human; conditions: day 21 (EOT)
Protocol: Clinical study of an enteric coated tablet comprising endoxifen citrate formulation was carried out by administering to the patient doses of 2 mg to 16 mg of endoxifen citrate in an enteric coated tablet once per day for at least 21 days according to the present application.
This study was a multicenter, randomized, double-blind, double-dummy, active controlled, parallel study to assess the efficacy and safety of endoxifen enteric coated tablet 8 mg and divalproex sodium extended release tablet 1000 mg in patient of bipolar I disorders, this study also evaluated the risk of suicidal behavior in the patient and that has progressed during or after treatment with at least one drug(s) selected from lithium, valproate, carbamazepine or an atypical (except clozapine) or typical antipsychotic.
Total 110 patients were qualified for PP population.

PKC = conditions: relative to tamoxifen; cited from earlier work

In the case of `CC/C(=C(\c1ccc(O)cc1)c1ccc(OCCNC)cc1)c1ccccc1.O=C(O)CC(O)(CC(=O)O)C(=O)O` [Endoxifen, (Z)-1-(4-Hydroxyphenyl)-1-{4-[2-(monomethylamino)ethoxy]phenyl}-2-phenyl-1-butene citrate], the “risk of suicidal behavior” value [1] is listed as “zero” and the “potency in inhibiting the PKC activity compared to tamoxifen” value (PKC) is listed as “four-fold higher potency”.
